Experimental findings from ChEMBL document CHEMBL1137923, “Identification of CJC-1131-albumin bioconjugate as a stable and bioactive GLP-1(7-36) analog” (Bioorg Med Chem Lett, 2004) are described below.

The structures appear in SMILES notation.

The target of assay [1] is T1, Glucagon-like peptide 1 receptor (Homo sapiens, UniProt P43220). Kind of assay: Effective concentration against human GLP1 receptor expressed in CHO cells. Type of assay: cell-based.
Assay [2] deals with T1, Glucagon-like peptide 1 receptor. Kind of assay: Inhibitory concentration required against human GLP1 receptor expressed in CHO cell membrane homogenates. Type of assay: cell-based.

T1 sequence (P43220 whole entry): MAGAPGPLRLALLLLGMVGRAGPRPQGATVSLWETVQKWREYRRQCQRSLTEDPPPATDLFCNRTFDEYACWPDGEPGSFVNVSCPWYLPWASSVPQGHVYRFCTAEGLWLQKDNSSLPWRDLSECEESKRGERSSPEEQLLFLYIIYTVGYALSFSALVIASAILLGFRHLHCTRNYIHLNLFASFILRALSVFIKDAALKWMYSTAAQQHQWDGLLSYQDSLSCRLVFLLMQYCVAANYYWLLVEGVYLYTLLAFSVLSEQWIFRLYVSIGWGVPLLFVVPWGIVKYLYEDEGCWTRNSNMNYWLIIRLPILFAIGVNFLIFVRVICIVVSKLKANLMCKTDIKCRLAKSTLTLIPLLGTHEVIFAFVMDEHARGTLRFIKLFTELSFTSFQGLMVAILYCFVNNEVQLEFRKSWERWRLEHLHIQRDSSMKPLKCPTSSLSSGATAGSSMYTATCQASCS

In assay [1], `CC[C@H](C)[C@H](NC(=O)[C@H](CCCCNC(=O)COCCOCCNC(=O)CCN1C(=O)C=CC1=O)NC(=O)[C@H](CCC(=O)O)NC(=O)[C@H](CCCCN)NC(=O)[C@H](C)NC(=O)[C@H](C)NC(=O)[C@H](CCC(N)=O)NC(=O)CNC(=O)[C@H](CCC(=O)O)NC(=O)[C@H](CC(C)C)NC(=O)[C@H](Cc1ccc(O)cc1)NC(=O)[C@H](CO)NC(=O)[C@H](CO)NC(=O)[C@@H](NC(=O)[C@H](CC(=O)O)NC(=O)[C@H](CO)NC(=O)[C@@H](NC(=O)[C@H](Cc1ccccc1)NC(=O)[C@@H](NC(=O)CNC(=O)[C@H](CCC(=O)O)NC(=O)[C@H](C)NC(=O)[C@@H](N)Cc1c[nH]cn1)[C@@H](C)O)[C@@H](C)O)C(C)C)C(=O)N[C@@H](C)C(=O)N[C@@H](Cc1c[nH]c2ccccc12)C(=O)N[C@@H](CC(C)C)C(=O)N[C@H](C(=O)N[C@@H](CCCCN)C(=O)NCC(=O)N[C@@H](CCCN=C(N)N)C(N)=O)C(C)C` showed an EC50 above 1 µM. This molecule showed an IC50 in assay [2] above 10 µM.

On to `CC[C@H](C)[C@H](NC(=O)[C@H](Cc1ccccc1)NC(=O)[C@H](CCC(=O)O)NC(=O)[C@H](CCCCN)NC(=O)[C@H](C)NC(=O)[C@H](C)NC(=O)[C@H](CCC(N)=O)NC(=O)CNC(=O)[C@H](CCC(=O)O)NC(=O)[C@H](CC(C)C)NC(=O)[C@H](Cc1ccc(O)cc1)NC(=O)[C@H](CCCCNC(=O)COCCOCCNC(=O)CCN1C(=O)C=CC1=O)NC(=O)[C@H](CO)NC(=O)[C@@H](NC(=O)[C@H](CC(=O)O)NC(=O)[C@H](CO)NC(=O)[C@@H](NC(=O)[C@H](Cc1ccccc1)NC(=O)[C@@H](NC(=O)CNC(=O)[C@H](CCC(=O)O)NC(=O)[C@H](C)NC(=O)[C@@H](N)Cc1c[nH]cn1)[C@@H](C)O)[C@@H](C)O)C(C)C)C(=O)N[C@@H](C)C(=O)N[C@@H](Cc1c[nH]c2ccccc12)C(=O)N[C@@H](CC(C)C)C(=O)N[C@H](C(=O)N[C@@H](CCCCN)C(=O)NCC(=O)N[C@@H](CCCN=C(N)N)C(N)=O)C(C)C`, for which the EC50 in assay [1] stood at 0.028 µM. Further, in assay [2], the IC50 came out at 0.713 µM.
